Measured values: patent US12435083B2, “Cyclopropyl-(hetero)aryl-substituted ethylsulphonyl-pyridine derivatives” (BOEHRINGER INGELHEIM VETMEDICA GMBH, priority 2021, dated 2025)
Where two headings read alike, the source gives them in different places.

Tests used:
Plutella xylostella = assay: Insecticidal test on Plutella xylostella (Chinese cabbage seedling dip); conditions: 144 h, 500 ppm, seedling dip, 6 days after dip treatment, read-out: activity level (corrected mortality rate), Plutella xylostella
Method in brief: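 Compounds dispersed in water at 500 ppm; Chinese cabbage seedlings bearing eggs laid by released adults over 2 days were dipped ~30 s, air-dried and kept at 25° C. Dead and live insects counted 6 days later; corrected mortality versus untreated plot scored A (100%), B (90–99%), C (80–89%), D (50–79%).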

Aedes aegypti L1 larvae = assay: Activity against larvae of Aedes aegypti (L1 larvae, 384-well, image-based mortality); conditions: read-out: EC50 (percentage of mortality, A. aegypti L1 larvae)
Experimental: Example 3: Screening Method to Test Activity of Compounds of Formula (I) Against Larvae of Aedes aegypti
Eight A. aegypti L1 larvae in a total volume of 64 μL water were added to 384-well microplates containing compounds formulated in 100% DMSO. The plates were incubated for 48 h at 27° C. Individual well images were acquired and analyzed using a pipeline to quantitatively assess the amount of larvae biomass accumulating at the bottom of the well. The efficacy of a compound at a given dose is expressed as “percentage of mortality” and determined by comparison to average biomass descriptors of positive and negative control wells containing 1.0 μM Fipronil or DMSO only, respectively. Dose response assay were conducted to determine an EC50 value.

[1] = tested on: Spodoptera litura 2nd-instar larvae; assay: Insecticidal test on Spodoptera litura (cabbage leaf dip); conditions: foliar, 192 h, 8 days after inoculation, read-out: activity level (corrected mortality rate), Spodoptera litura
Experimental: Example 11: Insecticidal Test on Spodoptera litura
The compounds of formula (I) of the present invention or salts thereof were separately dispersed in water and diluted to 500 ppm. Cabbage leaves were dipped in the dispersion for about 30 seconds. After air dried, the leaves were placed in a plastic Petri dish with a diameter of 9 cm and inoculated with ten 2nd-instar larvae of Spodoptera litura, after which the dish was closed and then allowed to stand in a room at 25° C. 8 days after the inoculation, the numbers of the dead and alive insects were counted. The corrected mortality rate was calculated according to the following formula and the insecticidal activity was evaluated according to the following criteria. Corrected mortality rate (%)=100×(Survival rate in an untreated plot−Survival rate in a treated plot)/Survival rate in an untreated plot • A: the corrected mortality rate is 100% • B: the corrected mortality rate is 90 to 99% • C: the corrected mortality rate is 80 to 89% • D: the corrected mortality rate is 50 to 79%

[2] = tested on: adult Ctenocephalides felis fleas; assay: Contact activity against adult Ctenocephalides felis (treated surface, motility by machine vision, 24 h); conditions: treated surface, 24h, read-out: EC80 (% motility reduction, adult C. felis, contact)
Excerpt: Example 7: Screening Method to Test Contact Activity of Compounds of Formula (I) Against Adult Ctenocephalides felis

[3] = tested on: adult Ctenocephalides felis fleas; assay: Ingestion activity (flea membrane feeding, blood feeding) against adult Ctenocephalides felis; conditions: Ctenocephalides felis
[4] = tested on: adult Rhipicephalus sanguineus ticks; assay: Contact activity against adult Rhipicephalus sanguineus (coated vial, mortality at 48 h); conditions: Rhipicephalus sanguineus
Method in brief: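 Compound in acetone/0.02% Triton X-100 coated onto glass vial walls and cap filter paper; after drying, ten adult ticks added per vial. Held at 24° C, 95% relative humidity, 12 h light/dark cycle. Mortality scored visually at 48 hours; EC50 derived from a dose-response series.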

Myzus persicae = assay: Insecticidal test on Myzus persicae (foliar application on potted Chinese cabbage); conditions: 144 h, read-out: control efficacy level (control rate), Myzus persicae
Excerpt: Example 14: Insecticidal Test on Myzus persicae
The compounds of formula (I) of the present invention or salts thereof were separately dispersed in water and diluted to 500 ppm. Chinese cabbage plants were planted in plastic pots (diameter: 8 cm, height: 8 cm). Aphids (Myzus persicae) were propagated on the plants and then the number of surviving aphids was counted. The dispersion was applied to the foliage of the potted plants. After the plants were air dried, these were kept in a greenhouse. 6 days after the application, the number of the alive insects was counted on the plants. The control rate was calculated according to the following formula and the control efficacy was evaluated according to the following criteria. Control rate (%)=100−{(T×Ca)/(Ta×C)}×100 • Ta: the number of alive insects before the foliar application in a treated plot • T: the number of alive insects after the foliar application in a treated plot • Ca: the number of alive insects before the foliar application in an untreated plot • C: the number of alive insects after the foliar application in an untreated plot • A: the control rate is 100% • B: the control rate is 90 to 99% • C: the control rate is 80 to 89% • D: the control rate is 50 to 79%

[5] = tested on: Laodelphax striatellus 3rd-instar nymphs; assay: Insecticidal test on Laodelphax striatellus (rice seedling dip); conditions: 192 h, 500 ppm, seedling dip, 8 days after inoculation, read-out: activity level (corrected mortality rate), Laodelphax striatellus
Experimental: Example 13: Insecticidal Test on Laodelphax striatellus
The compounds of formula (I) of the present invention or salts thereof were separately dispersed in water and diluted to 500 ppm. Rice plant seedlings were dipped in the dispersion for about 30 seconds. After air dried, the seedlings were put into a separate glass test tube and inoculated with ten 3rd-instar nymphs of Laodelphax striatellus and then the glass test tube was kept in a room at 25° C. 8 days after the inoculation, the numbers of the dead and alive insects were counted. The corrected mortality rate was calculated according to the following formula and the insecticidal activity was evaluated according to the following criteria. Corrected mortality rate (%)=100×(Survival rate in an untreated plot−Survival rate in a treated plot)/Survival rate in an untreated plot • A: the corrected mortality rate is 100% • B: the corrected mortality rate is 90 to 99% • C: the corrected mortality rate is 80 to 89% • D: the corrected mortality rate is 50 to 79%

[6] = 24 h, flea membrane feeding (ingestion, blood feeding) assay, EC80, read-out: C. felis membrane feeding (ingestion/blood feeding) activity EC80
[7] = bovine blood, 24h post treatment, read-out: EC80 (% motility reduction, adult C. felis, ingestion via membrane feeding)
[8] = 48 hours post-treatment, coated vial, read-out: EC50 (percentage mortality, adult R. sanguineus, contact)
[9] = contact assay, >100 μM = not active at the top concentration, read-out: R. sanguineus contact activity EC50
[10] = 500 ppm, foliar application, 6 days after application

`CCS(=O)(=O)c1cc(-c2cccc(C3CC3)n2)cnc1-c1nc2cc(C(F)(F)C(F)(F)F)cnc2n1C` [compound 112] was tested, and the mortality at 500 ppm (Plutella xylostella) was 100%, the EC50 (Aedes aegypti L1 larvae; 48 h at 27° C., 384-well) was less than 0.04 µM and the mortality at 500 ppm [1] was 100%. The EC80 [2] was less than 1 µM, the EC80 [3, 6] was 1 to 10 µM and the EC80 [3, 7] was 1 to 10 µM. It also gave an EC50 [4, 8] of 10 to 100 µM, an EC50 [4, 9] of 10 to 100 µM and a pest or weed control at 500 ppm (Myzus persicae; [10]) of 100%.
Work on `CCS(=O)(=O)c1cc(-c2ccc(C3(C#N)CC3)cc2)cnc1-c1nc2cc(C(F)(F)C(F)(F)F)ncc2n1C` [Compound 115, 1-[4-[5-(ethanesulfonyl)-6-[3-methyl-6-(1,1,2,2,2-pentafluoroethyl)imidazo[4,5-c]pyridin-2-yl]pyridin-3-yl]phenyl]cyclopropane-1-carbonitrile] yielded a mortality at 500 ppm (Plutella xylostella) of 100%, an EC50 (Aedes aegypti L1 larvae; 48 h at 27° C., 384-well) of less than 0.04 µM and a mortality at 500 ppm [1] of 100%. It also gave a mortality at 500 ppm [5] of 100%, an EC80 [2] of less than 1 µM and an EC80 [3, 6] of less than 1 µM. The EC80 [3, 7] was less than 1 µM, the EC50 [4, 8] was 10 to 100 µM and the EC50 [4, 9] was 10 to 100 µM. For the same compound, the pest or weed control at 500 ppm (Myzus persicae; [10]) was 100%.
In the case of `CCS(=O)(=O)c1cc(-c2ccc(C3CC3)cc2)cnc1-c1cc2n(CC3CC3)cc(C(F)(F)F)cc-2n1` [Compound 96, 2-[4-(cyclopropylmethyl)-6-(trifluoromethyl)pyrrolo[3,2-b]pyridin-2-yl]-5-(4-cyclopropylphenyl)-3-(ethanesulfonyl)pyridine], the mortality at 500 ppm (Plutella xylostella) is reported as 100%, the mortality at 500 ppm [1] is reported as 100% and the mortality at 500 ppm [5] is reported as 100%. For the same compound, the EC80 [3, 6] was 1 to 10 µM, the EC50 [4, 8] was less than 10 µM and the EC50 [4, 9] was 10 to 100 µM. The pest or weed control at 500 ppm (Myzus persicae; [10]) was 100%.
`CCS(=O)(=O)c1cc(-c2ccc(C3CC3)cc2)cnc1-c1nc2cc(C(F)(F)F)cnc2n1C` [Compound 41, 5-(4-cyclopropylphenyl)-3-(ethanesulfonyl)-2-[3-methyl-6-(trifluoromethyl)imidazo[4,5-b]pyridin-2-yl]pyridine] gave a mortality at 500 ppm (Plutella xylostella) of 100%, an EC50 (Aedes aegypti L1 larvae; 48 h at 27° C., 384-well) of less than 0.04 µM and a mortality at 500 ppm [1] of 100%. It also gave a mortality at 500 ppm [5] of 100%, an EC80 [2] of 1 to 10 µM and a pest or weed control at 500 ppm (Myzus persicae; [10]) of 100%.
With `CCS(=O)(=O)c1cc(-c2ccc(C3(C#N)CC3)cc2)cnc1-c1ccc(OCC(F)(F)C(F)(F)F)cn1` [compound 128] the mortality at 500 ppm (Plutella xylostella) was 100%, the mortality at 500 ppm [1] was 100% and the mortality at 500 ppm [5] was 100%. It also gave an EC80 [2] of 1 to 10 µM, an EC50 [4, 8] of less than 10 µM and a pest or weed control at 500 ppm (Myzus persicae; [10]) of 100%.
In the case of `CCS(=O)(=O)c1cc(-c2cccc(C3CC3)n2)cnc1-c1nc2cc(C(F)(F)C(F)(F)F)nnc2n1C` [Compound 3, 6-cyclopropyl-5′-(ethanesulfonyl)-6′-[7-methyl-3-(1,1,2,2,2-pentafluoroethyl)imidazo[4,5-c]pyridazin-6-yl]-2,3′-bipyridine], the mortality at 500 ppm (Plutella xylostella) is reported as 100%, the EC50 (Aedes aegypti L1 larvae; 48 h) is reported as less than 0.04 µM and the mortality at 500 ppm [1] is reported as 100%. It also gave a mortality at 500 ppm [5] of 100% and a pest or weed control at 500 ppm (Myzus persicae; foliar) of 100%.
